Data on two compounds can be found in patent publication US8206983B2, “In vitro methods for the induction and maintenance of plant cell lines as single suspension cells with intact cell walls” (Dow AgroSciences, LLC., priority 2006, dated 2012).

Where two headings read alike, the source gives them in different places. Where only a bound is given, the exact number is not on record here.

The subject of data set [1] is JTNT1 tobacco cell suspension cultures. Kind of data set: Single cell production, growth and viability of JTNT1 suspension with microtubule inhibitors in 24-well plates, glycerol medium. The source says: JTNT1 Tobacco Suspension Cultures. […] Furthermore, Suc stabilizes preformed microtubules, making an examination of the effects of MTIs on preformed microtubules unfeasible. In addition, sucrose increases solution viscosity substantially, and tubulin polymerization is altered at least in part by slowed dimer and polymer diffusion rates. Thus, it was important to have low or no sucrose in medium where the single cell production. Thus, a new JTNT1 line habituated in Glycerol was developed for this study.
Each of the 24 well contained 1 ml of JTNT1 suspension. The 24-well plates were kept on an Innova 4900 Multi Environmental Shaker with special clamps and harnesses to allow stacking of plates up to 6 plates high. The plates were rotated at a speed of 130 rpm and 25° C. in dark.
Single Cell Production. Each compound was dissolved in dimethyl sulfoxide (DMSO) to provide 0.5 Molar stock solutions. One ml of JTNT1 suspension (1 ml PCV/20 ml tobacco media) was added to each well of the 24 well plates. To each well an individual chemical was added to achieve the desired concentrations (at 1 μM, 3 μM, and 10 μM). The cultures were allowed to grow for 7 days on the Innova Shaker. Each day turbidity measurements was taken on each well using a SpectraMax M2^e by Molecular devices (set at 600 absorbance, with 5 readings taken per well). On day 7, cells were observed using the Leica 5000 inverted confocal microscope for formation of single cells and cell viability.

In data set [2] the test system is Carrot suspension cultures. Kind of data set: Single cell production from carrot suspension cultures. Set-up: colony growth after plating single cells on M-medium: dose or concentration left out as unconfirmed. Here is the method: Carrot callus cultures have been initiated from the in vitro maintained Daucus carota L. ssp. sativus cv Sativa plants. Isolated leaf petiole explants were cultured on semi solid medium (Mashayekhi-Nezamabadi, 2000). Suspension cultures were initiated from the callus by transferring 50 mg of friable callus in 1.5 ml of LSBY2 medium (Appendix I) in 24 micro well plate. The fastest growing suspensions were then transferred to flasks with 1 ml suspension in 35 ml LSBY2 liquid medium. The cultures were maintained in diffused light in a 7 day sub culture cycle.
A 1.5-ml diluted single cell cultures were plated on M-medium (Appendix II) in 15×100 Petri-plates and spread out using the loop. Untreated carrot suspension aggregates were also diluted to the same density and plated similarly to compare the growth responses between these cultures.
LSBY2 medium consists of Murashige and Skoog macro and micro-salts (Murashige and Skoog 1962) supplemented with 30 g sucrose (w/v), 100 mg/l myoinositol, 200 mg/l KH2PO4, 1 mg/l thiamine and […] 2,4-dichlorophenoxyacetic acid. The medium is adjusted pH 5.8 before autoclaving at 120° C. Suspension volume at the 7th day of culture, at stationary phase was used to initiate cultures. A 1-ml volume of carrot suspension inoculums is transferred into 50 ml LSBY2 medium and then the cultures were placed on shakers at 150 rpm in the dark at 28° C. The MTI compounds used were added along with the fresh medium at the culture initiation cycle.
A regenerable carrot cryopreserved line (D2-40-018) was thawed and cultured in Linsmeier-Skoog (LS) medium (Nagata, T., Nemoto, Y., and Hasezawa, S. (1992) Int. Rev. Cyto 132, 1-30). Medium salts were purchased from PhytoTechnology Laboratories, Catalog #L689. An actively growing suspension line was established within a week, and the maintenance line was sub-cultured by transferring 2 ml PCV to 58 ml of LS BY2 suspension medium at 28° C. on an orbital shaker (Innova-3300) at 125 rpm under diffused light on a 7 day culture cycle.

For data set [3], the system named is BY2, NT1, Petite Havana (PH) and Xanthi (Xan) and Jimson Weed (JM) Suspension Cells. Kind of data set: Effects of tubulin inhibitors on growth and cell separation, all suspension types tested. Format: cell-based. The source says:
BY2 suspension-cultured cells were obtained from Japan tobacco and maintained in LSBY2 medium in a 7 day cycle. Jimsonweed suspension and Pettite Havana tobacco suspensions were initiated from callus initiated at DAS and Xanthi suspensions were procured as a sample from Professor Jack Widholm from UIUC, IL. JT-NT1 suspension cells, obtained from Washington University that are maintained in NT1B medium in 7 day cycle were used only for the pectin degradation enzyme study to separate the cells into single cells. The cells were cultured in shake flasks at 25-28° C. in dark on orbital shakers at 150 rpm. […] Stock concentrations of both the tubulin polymerization inhibitors used in this investigation were dissolved in DMSO to prepare a 0.5 M stock solution. The concentration tested for the pectinase and pectolyase enzymes were in the range of 0.0005% to 0.005%. […] NT-1 cells were originally developed from Nicotiana tabacum L. cv. bright yellow 2.
Cell expansion and separation were observed by light microscopy (with Nomarski and dark field optics). Spherical cells and single cells were counted by using a hemacytometer to determine the degree of cell expansion and separation, respectively. […] In order to determine the presence of the cell wall in this single cell cultures optical brightener was used. Calcafluor obtained from Sigma, which is a specific fluorescent dye for cellulose is used in this study, and the cellulose-Calcafluor complexing was observed by fluorescence microscopy (Zeiss Photomicroscope). […] Prior to use, the Calcafluor stain was centrifuged at 15,000 g for 2 min. to remove precipitates. A drop or two of the Calcafluor solution was added to the separated cells.

A further data set concerns NT1 tobacco cell growth. Kind of data set: Effects of MTI on NT1 tobacco cell growth and single cell production in glycerol medium. It is filed as cell-based. Here is the method: The effects of Microtubule inhibitors (MTI) on tobacco cell growth in suspension culture were examined. […] Both the control and MTI-containing flasks contained a final concentration of 0.5-0.1% (v/v) DMSO. The growth of these chemicals was evaluated in EP12 medium for BY2 cells and NT1B medium for BTI-NT1 cells were the carbon source is substituted with 3% glycerol. The response of these cells was compared with the same medium composition but with 3% sucrose as the Carbon source.

On to `COc1cc2c(c(OC)c1OC)-c1ccc(OC)c(=O)cc1[C@@H](NC(C)=O)CC2` [Colchicine], for which, in data set [1], the “concentration necessary to produce single cells, lower end of range” value is not below 50 µM and the “concentration necessary to produce single cells, upper end of range” value was not above 2 mM. Also, the “increase in diameter of single cells” value in data set [1] (NT1B medium with 3% glycerol) is 5 fold. Besides, the “character of single cell production” value in data set [2] is given as “homogenous production of single cells”. Moreover, in data set [2] (1 mM), the “time of single cell production” value lay within 3 to 7 days. The “nuclear ploidy of single cells” value in data set [2] (1 mM, 14-21 days of continuous treatments) was “nuclear polyploidy”. Also, the “viability by fluorescein diacetate stain” value in data set [2] (1 mM, 4 days and 11 days) was “very active and viable”. The “frequency of nuclear polyploidy” value in data set [2] (1 mM, cultures up to 14 days) is less than 1%. Moreover, the “nuclei of super single cells” value in data set [2] (1 mM, up to 28 days) is “extensive lobed nuclei”. Besides, the “colony growth after plating single cells on M-medium” value in data set [2] (7 days in colchicine, 4 weeks growth in the dark) was “several discrete colonies”. Besides, the “cell expansion and separation” value in data set [3] (0.5 mM colchicine, all the other cell suspensions tested) is listed as “partially occurred”. Also, in the data set with NT1 tobacco cell growth, the “concentration effective for the production of single cells” value fell in the range of 0.25 to 0.5 mM.

As to `CCOC(=O)COc1nn(-c2ccccc2)c(-c2ccccc2)c1Cl` [DAS-PMTI-1], the “biomass versus respective controls” value in data set [1] (1 uM, sucrose or glycerol medium) is listed as “did not reduce the biomass of the cells significantly”. The “character of single cell production” value in data set [2] is “assorted cell shapes”. Also, the “potency relative to colchicine in affecting the growth of the cultures” value in data set [3] is 100-1000 ×. Further, the cell growth entry in data set [3] (0.5 mM) is recorded as “affected very significantly”. In data set [3] (0.5 mM, after 7 days of treatment), the cell death result is given as “considerable cell death”. The cell segregation result in data set [3] (all the cell suspension types tested) was “partial segregation of cells with general spherical shape”. In addition, in the data set on NT1 tobacco cell growth, the “concentrations causing inhibition of mitosis, and cell death” value is “over 100 nM”; the “threshold of tobacco cell growth inhibition” value is reported as approximately 50 nM. In addition, the “micro-nuclei in single cells (microscopic observations)” value in the data set on NT1 tobacco cell growth (25 nM) was “did not show the presence of micro-nuclei”. Also, the “fresh weights versus controls during the stationary phase” value in the data set on NT1 tobacco cell growth (25 nM (sentence ends with 50 nM), 3% glycerol) is listed as “slightly greater”. The “growth rate of the cells” value in the data set on NT1 tobacco cell growth (25 nM, over a period of 10 days) is listed as “not lowering the growth rate”. In addition, in the data set with NT1 tobacco cell growth (0.5-1.0 mM), the effect on growth result was “complete inhibition and cell death”. Moreover, the “time to complete inhibition and cell death” value with NT1 tobacco cell growth (0.5-1.0 mM, from culture initiation) is on record as not above 3 days. Further, in the data set with NT1 tobacco cell growth (glycerol as total carbon source, NT1 cells), the “concentration effective for the production of single cells” value fell in the range of 5e-06 to 2.5e-05 mM.
